Square brackets hold non-standard residues; d marks the D form. Peptide text beside a SMILES is read from it. * marks the point of attachment. Sta = CC(C)C[C@H](N)[C@@H](O)CC(=O)O; Isovaleryl = CC(C)CC(=O)*
Assays:
mouse islets [1] = experiment: Measurement of islet [Ca2+]i (Fura-2); assay type: cell-based
Procedure: (§1) Measurement of islet [Ca^2+]i, and NAD(P)H. Islet [Ca^2+]i and NAD(P)H were measured as previously described (Pontoglio et al., 1998; Dukes et al., 1998).
Insulin secretory responses to glucose and most other secretagogues is mediated by a rise in intracellular free calcium ([Ca^2+]i). We therefore measured [Ca^2+]i responses to glucose, KIC and KCl using Fura-2 as the Ca^2+ indicator. In comparison to the responses from the control islets, the most prominent abnormality in [Ca^2+]i responses to glucose and KIC was a delay of the [Ca^2+]i responses (FIG. 21). The mean time interval between administration of 14 mM glucose and the point of half maximal response (T1/2.) was 120±14 seconds in control islets. […] There was no delay in the appearance of [Ca^2+]i response to KCl, nor was the magnitude of the response reduced.

rat adipocytes = experiment: 2-Deoxyglucose uptake into adipocytes; assay type: cell-based; settings: 100 μM ALLM or 200 μM E-64-d
Procedure: Adipocytes were isolated from epididymal fat pads of 3 month old male Wistar rats as described previously (Robdell, 1964) with the following modification: fat pads were minced to 1-2 mm pieces and incubated for ˜25 min at 37° C. with collagenase I (1 mg/ml, Worthington Biochemicals, Lakewood, N.J.) in KRB containing 10 mM Hepes (pH 7.4), 0.2% BSA and 2 mM sodium pyruvate. The cell suspension was filtered through a nylon mesh (134 μM, Spectrum Lab., Laguna Hills, Calif.) washed three times by floating and allowed to rest for 45 min in the KRB. […] Then another 50 μl of KRB containing 5 mM 2-DOG (final concentration 1 mM), 0.5 μCi of 2-deoxy-[2,6-^3H]glucose was added and cells were incubated for a further 5 min at 25° C. The transport was stopped by adding cytochalasin B (final concentration 50 μM) and cells were spun through 250 μl of dinonyl phthalate oil (Fisher Scientific, Pittsburgh, Pa.). Cells were then transferred to scintillation vials for counting.

mouse pancreatic islets = experiment: Static incubation of isolated pancreatic islets, insulin secretion; assay type: cell-based; settings: for insulin secretory responses to 20 mM glucose in presence of other protease inhibitors: 100 μM inhibitor; for effect on basal or glucose-stimulated insulin secretion: 100 μM Cathepsin B Inhibitor II, 20 μM Lactacystin
Procedure: Static incubation of isolated pancreatic islets. Isolation of mouse pancreatic islets was accomplished using collagenase digestion as previously described (Pontoglio et al., 1998). […] Triplicate groups of 5 islets were then incubated in borosilicate tubes containing 1 ml of KRB with the same concentration of inhibitor and various insulin secretagogues for one hour in a moving water bath at 37° C. The reaction was stopped by placing the tubes on ice and an aliquot of the buffer was removed for measurement of insulin levels. Control studies, in which the incubation mixture contained vehicle (0.1% DMSO) only, were performed using aliquots of the same batch of islets
Assay methods. Insulin concentrations were measured by a double antibody radioimmunoassay using a rat insulin standard. The intra-assay coefficient of variation for this technique is 7%. All samples were assayed in duplicate.

perifused mouse islets = experiment: Insulin secretion from perifused islets; assay type: cell-based; settings: 4 hr preincubation; 100 μM ALLM, 200 μM E-64-d
Procedure: Insulin secretion from perifused islets. Insulin secretion from perifused islets was measured using a modification of a previously described protocol (Pontoglio et al., 1998; Sreenan et al., 1998).

soleus muscle strips = experiment: Glycogen synthesis rates in skeletal muscle; assay type: cell-based, rat; settings: 100 μM ALLM or 200 μM E-64-d
From the text: Glycogen synthesis rates in skeletal muscle.

isolated β-cells = experiment: Membrane capacitance recordings (exocytosis) in isolated β-cells; assay type: cell-based, mouse; settings: 4 days culture with inhibitor
Procedure: Isolation of pancreatic β-cells. Single β-cells were obtained from isolated islets dispersed by gentle trituration (120 strokes through a 200 μl pipette tip) in Ca^2+ and Mg^2+-free PBS containing […]. Cells were plated on glass coverslips and maintained in culture in RPMI containing 11.6 mM glucose for 48-96 hr.
Capacitance recordings. Capacitance measurements were made with the phase-tracking technique in which a 60 mV peak-to-peak sine wave was superimposed on a holding potential of −80 mV as previously described. Conductance and capacitance values were continuously generated and recorded. The whole-cell capacitance was canceled with the slow capacitance compensation; unbalancing the slow capacitance compensation by 100 fF provided the capacitance calibration signal used to calculate changes in membrane capacitance. The sinusoidal voltage template was interrupted to deliver depolarizations to a cell. Beta cells were stimulated with a train of ten step depolarizations to +20 mV (HP=−80 mV). Each step depolarization lasted 150 ms and was separated by 400 ms interpulse duration. Capacitance measurements were carried out in the perforated whole-cell configuration. The data were collected at a 500 μsec sampling rate and filtered at 5 kHz. Recordings with series resistance >20 MΩ were discarded. Series resistance compensation was applied in all recordings.
The recording solution for the capacitance measurements contained (in mM): 130 NaCl, 2 glucose, 10 Na-HEPES, 1 MgCl2, 2 KCl, and 5 CaCl2, pH 7.3 with NaOH. The pipette solution contained (in mM): 135 Cs-glutamate, 10 Na-HEPES, 9.5 NaCl, 0.5 TEACl, and 0.5 CaCl2, pH7.3 with CsOH. The pipettes were backfilled with an identical solution to which amphotericin B (final concentration of 0.5 mg/ml) was added and then sonicated. The amphotericin B stock solution (125 mg/ml) was kept frozen at −20° C. and used for one week. ALLM pre-treatment was as described above (see patch-clamp electrophysiology section). All electrophysiological recordings were carried out at room temperature (22-24° C.)

rat soleus muscle strips = experiment: 2-Deoxyglucose uptake into soleus muscle strips; assay type: cell-based; settings: 100 μM ALLM or 200 μM E-64-d
Procedure: 2-Deoxyglucose uptake into skeletal muscle and adipose tissue. 2-deoxyglucose (2-DOG) uptake by isolated strips of soleus muscle from normal Wistar rats was measured using a modification of a previously described protocol (Burant et al., 1984). […] Muscles were then extracted and 2-DOG uptake calculated as previously described (Burant et al., 1984).

islets = experiment: Insulin content of islets after 48 h inhibitor exposure; assay type: cell-based, mouse; settings: 48 hours treatment
calpain = experiment: Calpain activity in mouse pancreatic islets (Boc-Leu-Met-CMAC cleavage); assay type: cell-based
mouse islets [2] = experiment: Glucose utilization and oxidation rates in islets; assay type: cell-based
Procedure: Glucose utilization and oxidation rates. Glucose utilization and oxidation rates were measured as previously described (Dukes et al., 1998; Zhou et al., 1996) in mouse islets cultured as described above in the presence or absence of calpain inhibitors.

mouse islets [3] = experiment: Islet NAD(P)H autofluorescence response; assay type: cell-based
Procedure: as §1

CCOC(=O)[C@H]1O[C@@H]1C(=O)N[C@@H](CC(C)C)C(=O)NCCC(C)C [E-64-d, ethyl (+)-(2S,3S)-3-[(S)-3-Methyl-1-(3-methylbutylcarbamoyl)butyl-carbamoyl]-2-oxiranecarboxylate]
[Ca2+]i response to high glucose (mouse islets [1]; 4 hr preincubation, 14 mM glucose): not associated with increases in [Ca^2+]i | [Ca2+]i response to glucose ramp (2 to 26 mM over 48 mins) (mouse islets [1]; 48 h treated islets): diminished | [Ca2+]i responses to 30 mM KCl vs control (mouse islets [1]; 48 h treated islets): not different | integrated [Ca2+]i responses (area under the curves) to glucose and KIC vs control (mouse islets [1]; 48 h treated islets): significantly smaller | T1/2 of [Ca2+]i response to 14 mM glucose (time to half maximal response) (mouse islets [1]; 48 h treated islets, control 120±14 seconds): 265 ± 65 s | T1/2 of [Ca2+]i response to KIC (mouse islets [1]; 48 h treated islets, control 125±9): 330 ± 7 s | 2-DOG uptake into adipocytes with insulin (rat adipocytes; insulin 12 nmol/L): 749±129 pmol/2×10^5 cells/5 min | 2-DOG uptake into adipocytes without insulin (rat adipocytes; no insulin): 361±29 pmol/2×10^5 cells/5 min | insulin secretory response to 20 mM glucose after recovery (mouse pancreatic islets; 48-h treatment, then 2 days recovery without inhibitor): essentially normal insulin secretory response | effect on insulin secretion at 2 mM glucose (mouse pancreatic islets; 4 hr exposure, ALLM 250 μM, E-64-d 200 μM, 2 mM glucose): not observed | basal insulin secretion (2 mM glucose) vs control-treated islets (mouse pancreatic islets; 48 hours exposure): no significant difference | insulin secretory response to 30 mM KCl (mouse pancreatic islets; 48 h treated islets): significantly reduced | insulin secretory response to carbachol (mouse pancreatic islets; 48 h treated islets): attenuated | insulin secretory response to glyceraldehyde (mouse pancreatic islets; 48 h treated islets): responded normally | insulin secretory response to mastoparan (mouse pancreatic islets; 48 h treated islets): attenuated | insulin-secretory response to keto-isocaproic acid (KIC) (mouse pancreatic islets; 48 h treated islets): decreased | insulin secretory responses to glucose (summary statement of Example 8) (mouse pancreatic islets; isolated mouse islets, introductory summary, no conditions given): increase in glucose induced insulin secretion | enhancement of insulin secretory response to 20 mM glucose in dynamic islet perifusion (perifused mouse islets): also observed | magnitude of insulin-induced increase in muscle glycogen synthesis (soleus muscle strips; insulin 6 nM): 0.31±0.09 nmol glucose/mg/hr | rate of muscle glycogen synthesis with insulin (soleus muscle strips; insulin 6 nM): 0.80±0.14 nmol glucose/mg/hr | rate of muscle glycogen synthesis without insulin (soleus muscle strips; no insulin): 0.49±0.08 nmol glucose/mg/hr | rates of exocytosis in β-cells (isolated β-cells): significantly lower rates of exocytosis | 2-deoxyglucose uptake into soleus muscle strips with insulin (rat soleus muscle strips; insulin 12 nM): 0.36±0.02 (mol/ml H20/30 mins | 2-deoxyglucose uptake into soleus muscle strips without insulin (rat soleus muscle strips; no insulin): 0.31±0.02 (mol/ml H20/30 mins | insulin content in islets vs control islets (islets): comparable | area under the curve of rate of generation of fluorescent calpain product (calpain; 200 μM inhibitor, 4 hr incubation): 45±5 % of control values | residual calpain activity in intact islets (calpain; 48 h treatment, 100 μM ALLM or 200 μM E-64-d): 55±4 % of control treated islets | rate of glucose utilization at basal glucose (mouse islets [2]; 2 mM glucose, 100 μM ALLM or 200 μM E-64-d, 4 h): 15.5±4 pmol/islet/hr | rate of glucose utilization at stimulatory glucose (mouse islets [2]; 20 mM glucose, 100 μM ALLM or 200 μM E-64-d, 4 h): 79.5±9.5 pmol/islet/hr | rate of basal glucose utilization and oxidation at 3.3 mM glucose (mouse islets [2]; 48 h treated islets): no significant changes | rates of glycolysis and glucose oxidation at stimulating concentrations of glucose (mouse islets [2]; 48 h treated islets vs controls): significantly reduced | glucose oxidation rate at basal glucose (mouse islets [2]; basal glucose, ALLM or E-64-d, 4 h): 5.2±0.4 pmol/islet/hr | glucose oxidation rate at stimulatory glucose (mouse islets [2]; stimulatory glucose, ALLM or E-64-d, 4 h): 40.0±2.4 pmol/islet/hr | NAD(P)H response to increase in glucose from 2 to 14 mM (mouse islets [3]; 100 μM ALLM or E-64-d, 4 hr preincubation): 2.8±0.3 fold increase | NAD(P)H responses to KIC vs control (mouse islets [3]; 48 h treated islets): significantly reduced | NAD(P)H responses to glucose vs control (mouse islets [3]; 48 h treated islets): comparable

CC(C)CC(=O)N[C@H](C(=O)N[C@H](C(=O)N[C@@H](CC(C)C)[C@@H](O)CC(=O)N[C@@H](C)C(=O)N[C@@H](CC(C)C)[C@@H](O)CC(=O)O)C(C)C)C(C)C [pepstatin A] (Isovaleryl-VV[Sta]A[Sta]-OH)
insulin secretory responses to 20 mM glucose in presence of other protease inhibitors (mouse pancreatic islets): not altered

MDL28170
inhibition of 20 mM glucose-stimulated insulin secretion (mouse pancreatic islets; 48 h, 100 μM ALLM (so in the source), 50 μM MDL28170): approximately 60%

CC(=O)N[C@@H](CSC(=O)[C@]1([C@@H](O)C(C)C)NC(=O)[C@H](C)[C@@H]1O)C(=O)O [Lactacystin]
effect on basal or glucose-stimulated insulin secretion (mouse pancreatic islets; 48 h): did not significantly affect

CC(=O)N[C@@H](CC(C)C)C(=O)N[C@H](C(=O)N[C@H](C=O)CCCCN)C(C)C [Cath B Inhibitor II] (Ac-Leu-Val-Lys-aldehyde)
insulin secretory responses to 20 mM glucose in presence of other protease inhibitors (mouse pancreatic islets): not altered | effect on basal or glucose-stimulated insulin secretion (mouse pancreatic islets; 48 h): did not significantly affect

From patent US20060234276A1, “Methods of treatment of type 2 diabetes” (priority 1998, published 2006)
